Results: patent publication US10000486B2 (priority 2012, dated 2018)
Counter-ions that a name gives are not always drawn. Like-named read-outs stand apart in the source and are kept apart here.

Experiments:
[1] = tested on: Machupo pseudotyped virus; experiment: organism not typed; assay type: cell-based
[2] = tested on: Sabiá pseudotyped virus; experiment: organism not typed; assay type: cell-based; conditions: read-out: Activity (EC50 in μM vs. pseudotyped virus) Sabiá
[3] = tested on: VSVg pseudotyped virus; experiment: organism not typed; assay type: cell-based
[4] = tested on: Lassa GP-pseudotyped-virus; experiment: microbe, parasite or virus in culture; assay type: cell-based, Lassa fever virus; conditions: Human immunodeficiency virus 1, read-out: Activity (EC50 in μM vs. pseudotyped virus) Lassa
[5] = tested on: Junín pseudotyped virus; experiment: organism not typed; assay type: cell-based; conditions: read-out: Activity (EC50 in μM vs. pseudotyped virus) Junín
[6] = read-out: Activity (EC50 in μM vs. pseudotyped virus) Machupo
[7] = read-out: Activity (EC50 in μM vs. pseudotyped virus) VSVg

SMILES: CCc1ccc(/C=C\c2ccc3c(c2)ncn3-c2ccc(OC(C)C)cc2)cc1 [Compound 9, 5-[(Z)-2-(4-ethylphenyl)vinyl]-1-(4-isopropoxyphenyl)-benzimidazole]
- EC50 [1, 6]: < 1 µM
- EC50 [2]: < 1 µM
- EC50 [3, 7]: 10 to 50 µM
- EC50 [4]: < 1 µM
- EC50 [5]: < 1 µM

SMILES: CC(C)Oc1ccc(-n2cnc3cc(/C=C\c4ccc(C(C)(C)C)cc4)ccc32)cc1 [Compound 7, 5-[(Z)-2-(4-tert-butylphenyl)vinyl]-1-(4-isopropoxyphenyl)-benzimidazole]
- EC50 [1, 6]: < 1 µM
- EC50 [2]: < 1 µM
- EC50 [3, 7]: 10 to 50 µM
- EC50 [4]: < 1 µM
- EC50 [5]: < 1 µM

SMILES: CCOc1ccc(-n2cnc3cc(/C=C\c4ccc(CC)cc4)ccc32)nc1 [Compound 19, 1-(5-ethoxy-2-pyridyl)-5-[(Z)-2-(4-ethylphenyl)vinyl]benzimidazol hydrochloride]
- EC50 [1, 6]: < 1 µM
- EC50 [2]: < 1 µM
- EC50 [3, 7]: 10 to 50 µM
- EC50 [4]: < 1 µM
- EC50 [5]: < 1 µM

SMILES: CCOc1ccc(-n2cnc3cc(/C=C\c4ccc(C(C)(C)C)cc4)ccc32)nc1 [Compound 21, 5-[(Z)-2-(4-tert-butylphenyl)vinyl]-1-(5-ethoxy-2-pyridyl)benzimidazole hydrochloride]
- EC50 [1, 6]: < 1 µM
- EC50 [2]: < 1 µM
- EC50 [3, 7]: 10 to 50 µM
- EC50 [4]: < 1 µM
- EC50 [5]: < 1 µM

SMILES: CCc1ccc(/C=C\c2ccc3c(c2)ncn3-c2ccc(OC(C)(C)C)cc2)cc1 [Compound 15, 1-(4-tert-butoxyphenyl)-5-[(Z)-2-(4-ethylphenyl)-vinyl]benzimidazole]
- EC50 [2]: < 1 µM
- EC50 [3, 7]: 10 to 50 µM
- EC50 [4]: < 1 µM

SMILES: CCOc1ccc(-n2cnc3cc(C#Cc4ccc(CC)cc4)cnc32)cc1 [Compound 26, 3-(4-ethoxyphenyl)-6-[2-(4-ethylphenyl)-ethynyl]imidazo[4,5-b]pyridine]
- EC50 [1, 6]: 10 to 50 µM
- EC50 [3, 7]: 10 to 50 µM
- EC50 [4]: 1 to 10 µM
- EC50 [5]: 1 to 10 µM

SMILES: CC(C)Oc1ccc(-n2cnc3cc(/C=C\c4ccc(C(C)(C)O)cc4)ccc32)cc1 [Compound 38, 2-[4-[(Z)-2-[1-(4-isopropoxyphenyl)benzimidazol-5-yl]vinyl]phenyl]-propan-2-ol]
- EC50 [1, 6]: < 1 µM
- EC50 [3, 7]: 1 to 10 µM
- EC50 [4]: < 1 µM
- EC50 [5]: < 1 µM

SMILES: CCOc1ccc(-n2cnc3cc(/C=C/c4ccc(OC(F)(F)F)cc4)ccc32)cc1 [Compound 10, 1-(4-ethoxyphenyl)-5-[(E)-2-[4-(trifluoromethoxy)phenyl]vinyl]benzimidazole]
- EC50 [1, 6]: 1 to 10 µM
- EC50 [3, 7]: > 50 µM
- EC50 [4]: < 1 µM
- EC50 [5]: < 1 µM

SMILES: CCOc1ccc(-n2cnc3cc(OCc4ccc(CC)cc4)ccc32)cc1 [Compound 29, 1-(4-ethoxyphenyl)-5-[(4-ethylphenyl)-methoxy]benzimidazole]
- EC50 [1, 6]: < 1 µM
- EC50 [3, 7]: 10 to 50 µM
- EC50 [4]: < 1 µM
- EC50 [5]: < 1 µM

SMILES: COc1ccc(-n2cnc3cc(OCc4ccc(C(C)C)cc4)ccc32)cc1 [Compound 30, 5-[(4-isopropylphenyl)methoxy]-1-(4-methoxyphenyl)benzimidazole]
- EC50 [1, 6]: < 1 µM
- EC50 [3, 7]: 10 to 50 µM
- EC50 [4]: < 1 µM
- EC50 [5]: < 1 µM

SMILES: CC(C)Oc1ccc(-n2cnc3cc(/C=C\c4ccc(C5(O)CCOCC5)cc4)ccc32)cc1 [Compound 59, 4-[4-[(Z)-2-[1-(4-isopropoxyphenyl)benzimidazol-5-yl]vinyl]phenyl]tetrahydropyran-4-ol]
- EC50 [1, 6]: < 1 µM
- EC50 [3, 7]: 1 to 10 µM
- EC50 [4]: < 1 µM
- EC50 [5]: < 1 µM

SMILES: CC(C)Oc1ccc(-n2cnc3cc(/C=C\c4ccc(C(C)(C)N)cc4)ccc32)cc1 [Compound 60, 2-[4-[(Z)-2-[1-(4-isopropoxyphenyl)benzimidazol-5-yl]vinyl]phenyl]propan-2-amine]
- EC50 [1, 6]: < 1 µM
- EC50 [3, 7]: > 50 µM
- EC50 [4]: < 1 µM
- EC50 [5]: < 1 µM

SMILES: CC(C)(C)Oc1ccc(-n2cnc3cc(/C=C\c4ccc(C(C)(C)C)cc4)ccc32)cc1 [Compound 17, 1-(4-tert-butoxyphenyl)-5-[(Z)-2-(4-tert-butylphenyl)vinyl]benzimidazole]
- EC50 [2]: < 1 µM
- EC50 [3, 7]: 10 to 50 µM
- EC50 [4]: < 1 µM

SMILES: CCC(C)(O)c1ccc(/C=C\c2ccc3c(c2)ncn3-c2ccc(OC(C)C)cc2)cc1 (centres unmarked) [Compound 50, 2-[4-[(Z)-2-[1-(4-isopropoxyphenyl)benzimidazol-5-yl]vinyl]phenyl]butan-2-ol]
- EC50 [1, 6]: < 1 µM
- EC50 [3, 7]: 1 to 10 µM
- EC50 [4]: < 1 µM
- EC50 [5]: < 1 µM

SMILES: CCOc1ccc(-n2cnc3cc(/C=C/c4ccc(C(F)(F)F)cc4)ccc32)cc1 [Compound 12, 1-(4-ethoxyphenyl)-5-[(E)-2-[4-(trifluoromethyl)phenyl]vinyl]benzimidazole]
- EC50 ([1]; read-out: EC50 (Note 1, Machupo)): 51 µM
- EC50 ([3]; read-out: EC50 (Note 2, VSVg)): 196 µM
- EC50 [4]: 10 to 50 µM
- EC50 [5]: 10 to 50 µM

SMILES: CCOc1ccc(-n2cnc3cc(CNc4ccc(CC)cc4)ccc32)cc1 [Compound 34, N-[[1-(4-ethoxyphenyl)benzimidazol-5-yl]methyl]-4-ethyl-aniline]
- EC50 [1, 6]: < 1 µM
- EC50 [3, 7]: 10 to 50 µM
- EC50 [4]: < 1 µM
- EC50 [5]: < 1 µM

SMILES: CCOc1ccc(-c2cnc3cc(NCc4ccc(CC)cc4)ccn23)cc1 [Compound 65, 3-(4-ethoxyphenyl)-N-[(4-ethylphenyl)-methyl]imidazo[1,2-a]pyridin-7-amine]
- EC50 [1, 6]: < 1 µM
- EC50 [3, 7]: 1 to 10 µM
- EC50 [4]: < 1 µM
- EC50 [5]: < 1 µM

SMILES: CC(C)Oc1ccc(-n2cnc3cc(/C=C\c4ccc(C5(O)CCC5)cc4)ccc32)cc1 [Compound 52, 1-[4-[(Z)-2-[1-(4-isopropoxyphenyl)benzimidazol-5-yl]vinyl]phenyl]cyclobutanol]
- EC50 [1, 6]: < 1 µM
- EC50 [3, 7]: 1 to 10 µM
- EC50 [4]: < 1 µM
- EC50 [5]: < 1 µM

SMILES: CCOc1ccc(-n2c[n+]([O-])c3cc(NCc4ccc(CC)cc4)ccc32)cc1 [Compound 67, 1-(4-ethoxyphenyl)-N-[(4-ethylphenyl)-methyl]-3-oxido-benzimidazol-3-ium-5-amine]
- EC50 [1, 6]: < 1 µM
- EC50 [3, 7]: 10 to 50 µM
- EC50 [4]: < 1 µM
- EC50 [5]: < 1 µM

SMILES: CCOc1ccc(-n2cnc3cc(/C=C\c4ccc(C(F)(F)F)cc4)ccc32)cc1 [Compound 13]
- EC50 [1, 6]: < 1 µM
- EC50 [3, 7]: 10 to 50 µM
- EC50 [4]: < 1 µM
- EC50 [5]: < 1 µM

SMILES: CC(C)Oc1ccc(-n2cnc3cc(C4CC4c4ccc(C(C)(C)C)cc4)ccc32)cc1 (centres unmarked) [Compound 36, 5-[2-(4-tert-butylphenyl)cyclopropyl]-1-(4-isopropoxyphenyl)-benzimidazole]
- EC50 [1, 6]: < 1 µM
- EC50 [3, 7]: 10 to 50 µM
- EC50 [4]: < 1 µM
- EC50 [5]: < 1 µM

SMILES: CCc1ccc(/C=C/c2ccc3c(c2)ncn3-c2ccc(OC(C)C)cc2)cc1 [Compound 8, 5-[(E)-2-(4-ethylphenyl)vinyl]-1-(4-isopropoxyphenyl)-benzimidazole]
- EC50 [1, 6]: < 1 µM
- EC50 [3, 7]: 10 to 50 µM
- EC50 [4]: < 1 µM
- EC50 [5]: < 1 µM

SMILES: CC(C)Oc1ccc(-n2cnc3cc(/C=C\c4ccc(C(C)O)cc4)ccc32)cc1 (centres unmarked) [Compound 51, 1-[4-[(Z)-2-[1-(4-isopropoxyphenyl)benzimidazol-5-yl]vinyl]phenyl]ethanol]
- EC50 [1, 6]: < 1 µM
- EC50 [3, 7]: 1 to 10 µM
- EC50 [4]: < 1 µM
- EC50 [5]: < 1 µM

SMILES: C=C(C)c1ccc(/C=C\c2ccc3c(c2)ncn3-c2ccc(OC(C)C)cc2)cc1 [Compound 40, 5-[(Z)-2-(4-isopropenylphenyl)-vinyl]-1-(4-isopropoxyphenyl)-benzimidazole]
- EC50 [1, 6]: < 1 µM
- EC50 [3, 7]: 10 to 50 µM
- EC50 [4]: < 1 µM
- EC50 [5]: < 1 µM
